Test systems include RXF 631; LXFL 529; HOP-18; DMS-114; KM-20L2; DLD-1; SNB-78; M19-MEL; XF498.
What all share (assay): DTP human tumour cell line panel, 48 h

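Grown in 96-well plates, cells were treated for 48 hours with each compound at five concentrations. Insufficient inhibition: endpoint recorded as highest concentration tested. GI50 = concentration required for 50% inhibition of growth.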 Activity calls are given as the source filed them. Rule as the data show it: active = GI50 up to about 1.1 µM and inactive = higher.

As to `Cc1cc2occ(-c3ccc(Cl)cc3)c2c(=O)o1`, the GI50 (usually the concentration at which growth is held to half of that of the control) with RXF 631 is > 100 µM (inactive); with LXFL 529 it was > 100 µM (inactive); in the assay on HOP-18 it was > 100 µM (inactive); in the assay with DMS-114 it was > 100 µM (inactive); in the assay with KM-20L2, > 100 µM (inactive); in the assay with DLD-1, 76 µM (inactive). Besides, the GI50 in the assay with SNB-78 is > 100 µM (inactive).

As for `CC(=O)OC1CCC2C(=CCC3C2(C)C(=O)CC2(C)C(C4(C)OC(C(C)C)=CC4=O)C(O)CC32C)C1(C)C` (stereo unspecified), the GI50 in the assay with LXFL 529 was 31.3 µM (inactive); with M19-MEL, 12.6 µM (inactive); in the assay on DMS-114 it was 25.8 µM (inactive); in the assay with KM-20L2, 17.9 µM (inactive); with XF498, 31.3 µM (inactive); in the assay on DLD-1, 32.5 µM (inactive). The GI50 in the assay with SNB-78 is 78.3 µM (inactive).

`N#CC(C(=O)C(=O)Nc1c(Cl)cccc1Cl)c1ccccc1` (stereo unspecified): the GI50 in the assay with RXF 631, in the assay with LXFL 529, in the assay on M19-MEL, in the assay on HOP-18, in the assay with DMS-114 and with KM-20L2 was > 10 µM (inactive) throughout. In addition, the results for the GI50 in the assay with XF498, with DLD-1 and with SNB-78 were > 100 µM (inactive), > 10 µM (inactive) and > 10 µM (inactive), respectively.

Regarding `COc1cc2c(c(O)c1C)C(=O)C(Cl)=CC2=O`, the GI50 in the assay on RXF 631 was 12.1 µM (inactive); with LXFL 529 it was 7.43 µM (inactive); in the assay on M19-MEL, 7.98 µM (inactive); in the assay with HOP-18, 16.5 µM (inactive); in the assay with DMS-114, 16.6 µM (inactive); in the assay with KM-20L2, 23.1 µM (inactive). Also, the GI50 in the assay with XF498 is 20 µM (inactive); in the assay with DLD-1 it was 17.4 µM (inactive); with SNB-78, 12.8 µM (inactive).

Regarding `CC(=O)OC12C(C)=C(C)C(=O)N1c1ccccc1N2C(C)=O` (stereo unspecified), the GI50 with LXFL 529, in the assay with M19-MEL, in the assay on HOP-18, in the assay on KM-20L2, in the assay on XF498 and with SNB-78 was > 100 µM (inactive) each time.

As to `Cc1cc(C)nc(NS(=O)(=O)c2ccc(Nc3c4ccccc4nc4c(C(=O)Nc5ccc(S(N)(=O)=O)cc5)cccc34)cc2)n1`, the GI50 in the assay with LXFL 529 is 88.9 µM (inactive); in the assay with M19-MEL, 94.2 µM (inactive); with HOP-18, 51.6 µM (inactive); in the assay on DMS-114, > 100 µM (inactive); in the assay with KM-20L2 it was > 100 µM (inactive); in the assay on XF498, > 100 µM (inactive). Moreover, the values for the GI50 in the assay with DLD-1 and with SNB-78 were 71.8 µM (inactive) and > 100 µM (inactive), respectively.

Consider `CC(O)C(NC(=O)c1ccccc1)C(=O)N(Cc1ccccc1)Cc1ccccc1` (stereo unspecified), for which the GI50 is > 100 µM (inactive) with RXF 631; > 100 µM (inactive) in the assay with LXFL 529; > 100 µM (inactive) in the assay on M19-MEL; 37 µM (inactive) in the assay on HOP-18; > 100 µM (inactive) in the assay on DMS-114; > 100 µM (inactive) in the assay with KM-20L2. The GI50 in the assay with XF498, with DLD-1 and with SNB-78 was > 100 µM (inactive) each time.

With `CC1OC(CC2C=CCc3c(O)c4c(c(O)c32)C(=O)c2ccccc2C4=O)CC(NC(=O)C(F)(F)F)C1O` (stereo unspecified), the GI50 in the assay on LXFL 529 was 6.87 µM (inactive); with M19-MEL it was 8.22 µM (inactive); with DMS-114, 10 µM (inactive); with KM-20L2, 16.3 µM (inactive); in the assay with XF498, 1.91 µM (inactive); in the assay with DLD-1, 7.38 µM (inactive). Further, the GI50 in the assay on SNB-78 is 4.18 µM (inactive).

`c1ccc(C(c2ccccc2)c2ccncc2)cc1`: the GI50 in the assay on RXF 631, with M19-MEL, with HOP-18, with DMS-114, with KM-20L2 and in the assay on XF498 was > 100 µM (inactive) in each case. The GI50 with DLD-1 and in the assay on SNB-78 was > 100 µM (inactive) in each case.

For `O=C(Nc1nc2ncn(CCI)c2c(=O)[nH]1)c1ccccc1`, the GI50 in the assay on RXF 631 was > 100 µM (inactive); in the assay with LXFL 529, > 100 µM (inactive); with M19-MEL, > 100 µM (inactive); with HOP-18, > 56.1 µM (inactive); in the assay on KM-20L2, > 100 µM (inactive); with XF498, 20.4 µM (inactive). Further, the GI50 in the assay on SNB-78 was > 56.1 µM (inactive).

Take `CC(=O)OCSc1ncnc2c1ncn2CN1CCOCC1`: the GI50 was > 100 µM (inactive) in the assay on LXFL 529; 59 µM (inactive) in the assay with M19-MEL; 40.1 µM (inactive) in the assay on HOP-18; 6.53 µM (inactive) in the assay on DMS-114; 7.59 µM (inactive) in the assay with KM-20L2; 6.55 µM (inactive) in the assay on DLD-1. Further, the GI50 with SNB-78 is > 100 µM (inactive).

Take `Cc1c(-c2coc(-c3ccc(Cl)cc3)n2)c(=O)n(-c2ccccc2)n1C`: the GI50 in the assay with LXFL 529 was > 100 µM (inactive); in the assay with M19-MEL, > 100 µM (inactive); in the assay with KM-20L2, > 100 µM (inactive); in the assay on XF498, 19.1 µM (inactive); in the assay on DLD-1, > 100 µM (inactive); in the assay on SNB-78 it was > 100 µM (inactive).

Turning to `O=C(Nc1ccccc1[N+](=O)[O-])C(=O)C(C(=O)c1ccccc1-c1ccccc1)C1OC(=O)c2ccccc21` (stereo unspecified), the GI50 with RXF 631 was 13.4 µM (inactive); in the assay on LXFL 529, 11 µM (inactive); in the assay on M19-MEL it was 12.6 µM (inactive); with HOP-18, 14.1 µM (inactive); with DMS-114 it was 13.6 µM (inactive); in the assay on KM-20L2, 18.2 µM (inactive). For the same compound, the GI50 in the assay on DLD-1 is 21.4 µM (inactive); in the assay on SNB-78, 20.1 µM (inactive).

With `COc1cc(/C=C/c2ccncc2)cc(OC)c1OC`, the GI50 in the assay with RXF 631 was 31.6 µM (inactive); in the assay on LXFL 529, 55 µM (inactive); in the assay on HOP-18, 70.8 µM (inactive); in the assay with DMS-114, > 100 µM (inactive); with KM-20L2, 65.5 µM (inactive); in the assay on XF498, 22.4 µM (inactive). Further, the values for the GI50 in the assay on DLD-1 and with SNB-78 were > 100 µM (inactive) and 96.2 µM (inactive), respectively.

As for `COc1ccc(OC)c(/C=N/N=C(\N)NO)c1`, the GI50 was 37.6 µM (inactive) with RXF 631; 4.57 µM (inactive) with LXFL 529; 61 µM (inactive) with M19-MEL; 14.9 µM (inactive) with DMS-114; 18 µM (inactive) in the assay on XF498; 17.2 µM (inactive) in the assay on DLD-1. For the same compound, in the assay with SNB-78, the GI50 is 82.6 µM (inactive).

In the case of `O=C1c2cccc3cc([N+](=O)[O-])cc(c23)C(=O)N1CCNCCNCCNCCN1C(=O)c2cccc3cc([N+](=O)[O-])cc(c23)C1=O`, the 50% growth inhibitory concentration (GI50) was 0.01 µM (active) in the assay on LXFL 529; 0.149 µM (active) with HOP-18; 0.01 µM (active) with KM-20L2; < 0.001 µM (active) with DLD-1; 0.0553 µM (active) in the assay with SNB-78.

Regarding `CCC12C=CCN3CCC4(C(=C(C(=O)OC)[C@@H]1O)Nc1ccccc14)C32` (stereo partly specified), the GI50 with LXFL 529 was 1.66 µM (inactive); with M19-MEL it was 1.74 µM (inactive); in the assay on HOP-18, 1.71 µM (inactive); with DMS-114, 1.69 µM (inactive); in the assay with KM-20L2, 1.84 µM (inactive); in the assay with XF498 it was 1.63 µM (inactive). Also, the values for the GI50 with DLD-1 and with SNB-78 were 1.67 µM (inactive) and 2.8 µM (inactive), respectively.

Take `OC1(C(Sc2ccccc2)Sc2ccccc2)CCCCCC1`: the GI50 was 35.2 µM (inactive) in the assay with M19-MEL; 27.1 µM (inactive) in the assay on DMS-114; 2.81 µM (inactive) with KM-20L2; 13.6 µM (inactive) with XF498; 38.4 µM (inactive) in the assay on DLD-1; 74.1 µM (inactive) with SNB-78.

For `Cc1ccc(Sc2ccccc2N)cc1`, the GI50 in the assay on RXF 631 was 29 µM (inactive); in the assay with LXFL 529 it was 16.8 µM (inactive); in the assay with M19-MEL, 41.6 µM (inactive); with HOP-18, 77.8 µM (inactive); in the assay on DMS-114 it was 43.4 µM (inactive); with KM-20L2, 39.9 µM (inactive). In the assay on SNB-78, the GI50 is 84.7 µM (inactive).

As for `Cc1ccccc1NC(=O)C(=O)C(C(=O)c1ccccc1F)C1OC(=O)c2ccccc21` (stereo unspecified), the GI50 in the assay on RXF 631 is 26.9 µM (inactive); with LXFL 529, 13.4 µM (inactive); in the assay with HOP-18, 23.4 µM (inactive); in the assay on DMS-114 it was 10.2 µM (inactive); in the assay with KM-20L2, 38.3 µM (inactive); with DLD-1 it was 22.2 µM (inactive). In the assay on SNB-78, the GI50 was 13.3 µM (inactive).

Turning to `CCN(CCCl)CCCNc1c2ccccc2nc2ccc(OC)cc12`, the GI50 with LXFL 529 is 0.0912 µM (active); in the assay on M19-MEL, 0.216 µM (active); in the assay on DMS-114, 0.314 µM (active); in the assay with KM-20L2, 0.181 µM (active); in the assay on XF498, 0.116 µM (active); with DLD-1, 0.084 µM (active). Further, the GI50 with SNB-78 is 0.357 µM (active).

As to `CCc1cccc(C(C)C)c1NC(=O)CCl`, the GI50 in the assay with RXF 631 was 19.7 µM (inactive); with LXFL 529, > 100 µM (inactive); in the assay with M19-MEL it was 58.3 µM (inactive); with KM-20L2 it was > 100 µM (inactive); in the assay with XF498, > 100 µM (inactive); in the assay with DLD-1, > 100 µM (inactive). In addition, the GI50 with SNB-78 is > 100 µM (inactive).

`CC(C)(C)c1ccc(OCCOCCOc2ccc(C(C)(C)C)cc2S(=O)(=O)Nc2ccc([N+](=O)[O-])cc2)c(S(=O)(=O)Nc2ccc([N+](=O)[O-])cc2)c1`: the GI50 is 6.82 µM (inactive) in the assay with RXF 631; 6.11 µM (inactive) in the assay with M19-MEL; 9.75 µM (inactive) with HOP-18; 9.42 µM (inactive) with DMS-114; 38.6 µM (inactive) with DLD-1; 15.2 µM (inactive) in the assay on SNB-78.

Values taken from ChEMBL document CHEMBL1201862, “PubChem BioAssay data set” (2004).
